pEC50, pIC50: −log10 of the molar value. Like-named read-outs stand apart in the source and are kept apart here.
Columns and labels:
ERK5 = target: T1, ERK5 (Homo sapiens, UniProt Q13164); test: Probe-based (AX9989 acyl phosphate ATP probe) kinase profiling in Jurkat lysate: ERK5; assay type: binding; details: for pIC50: Jurkat lysate
T1 construct: screened for activity against several kinases in Jurkat cells; endogenous in cells; host or cells: Jurkat cell lysate
Summary of the method: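 Gel-filtered Jurkat lysate (5 mg/ml, 20 mM MnCl2) preincubated 15 min at room temperature with compound, then labelled with 5 μM AX9989 acyl phosphate ATP probe. Probe-labelled ERK5 active-site peptides quantified by LC/MS after trypsin digestion and streptavidin capture; IC50 calculated from percent inhibition at the screening concentration.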

AurA = target: T2, AurA (Homo sapiens, UniProt O14965); test: Probe-based (AX9989) kinase profiling in Jurkat lysate: AurA; assay type: binding
T2 construct: screened for activity against several kinases in Jurkat cells; endogenous in cells; host or cells: Jurkat cell lysate
T2 sequence (O14965 1-403): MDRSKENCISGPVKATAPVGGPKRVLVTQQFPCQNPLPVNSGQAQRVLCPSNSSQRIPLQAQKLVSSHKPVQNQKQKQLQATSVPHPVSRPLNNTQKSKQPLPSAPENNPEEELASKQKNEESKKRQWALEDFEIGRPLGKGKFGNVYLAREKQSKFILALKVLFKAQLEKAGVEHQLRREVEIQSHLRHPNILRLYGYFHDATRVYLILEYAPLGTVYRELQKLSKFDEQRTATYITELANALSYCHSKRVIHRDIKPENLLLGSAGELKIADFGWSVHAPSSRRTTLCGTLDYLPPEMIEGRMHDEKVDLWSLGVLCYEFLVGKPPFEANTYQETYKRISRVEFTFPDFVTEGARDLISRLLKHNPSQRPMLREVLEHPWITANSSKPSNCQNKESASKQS
Summary of the method: (§1)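 Compounds were pre-incubated for 15 min at room temperature with gel-filtered Jurkat cell lysate supplemented with 20 mM MnCl2, after which the acyl phosphate ATP probe AX9989 was added at 5 μM final. Labeled active-site peptides were enriched after tryptic digestion and measured by LC/MS, with percent inhibition taken relative to samples without compound.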

AurB or AurC = test: Probe-based (AX9989) kinase profiling in Jurkat lysate: AurB or AurC; assay type: binding
Summary of the method: as §1

JAK1 = target: T3, JAK1 (Homo sapiens, UniProt P23458); test: Probe-based (AX9989) kinase profiling in Jurkat lysate: JAK1; assay type: binding
T3 construct: screened for activity against several kinases in Jurkat cells; endogenous in cells; host or cells: Jurkat cell lysate
T3 sequence (P23458 whole entry): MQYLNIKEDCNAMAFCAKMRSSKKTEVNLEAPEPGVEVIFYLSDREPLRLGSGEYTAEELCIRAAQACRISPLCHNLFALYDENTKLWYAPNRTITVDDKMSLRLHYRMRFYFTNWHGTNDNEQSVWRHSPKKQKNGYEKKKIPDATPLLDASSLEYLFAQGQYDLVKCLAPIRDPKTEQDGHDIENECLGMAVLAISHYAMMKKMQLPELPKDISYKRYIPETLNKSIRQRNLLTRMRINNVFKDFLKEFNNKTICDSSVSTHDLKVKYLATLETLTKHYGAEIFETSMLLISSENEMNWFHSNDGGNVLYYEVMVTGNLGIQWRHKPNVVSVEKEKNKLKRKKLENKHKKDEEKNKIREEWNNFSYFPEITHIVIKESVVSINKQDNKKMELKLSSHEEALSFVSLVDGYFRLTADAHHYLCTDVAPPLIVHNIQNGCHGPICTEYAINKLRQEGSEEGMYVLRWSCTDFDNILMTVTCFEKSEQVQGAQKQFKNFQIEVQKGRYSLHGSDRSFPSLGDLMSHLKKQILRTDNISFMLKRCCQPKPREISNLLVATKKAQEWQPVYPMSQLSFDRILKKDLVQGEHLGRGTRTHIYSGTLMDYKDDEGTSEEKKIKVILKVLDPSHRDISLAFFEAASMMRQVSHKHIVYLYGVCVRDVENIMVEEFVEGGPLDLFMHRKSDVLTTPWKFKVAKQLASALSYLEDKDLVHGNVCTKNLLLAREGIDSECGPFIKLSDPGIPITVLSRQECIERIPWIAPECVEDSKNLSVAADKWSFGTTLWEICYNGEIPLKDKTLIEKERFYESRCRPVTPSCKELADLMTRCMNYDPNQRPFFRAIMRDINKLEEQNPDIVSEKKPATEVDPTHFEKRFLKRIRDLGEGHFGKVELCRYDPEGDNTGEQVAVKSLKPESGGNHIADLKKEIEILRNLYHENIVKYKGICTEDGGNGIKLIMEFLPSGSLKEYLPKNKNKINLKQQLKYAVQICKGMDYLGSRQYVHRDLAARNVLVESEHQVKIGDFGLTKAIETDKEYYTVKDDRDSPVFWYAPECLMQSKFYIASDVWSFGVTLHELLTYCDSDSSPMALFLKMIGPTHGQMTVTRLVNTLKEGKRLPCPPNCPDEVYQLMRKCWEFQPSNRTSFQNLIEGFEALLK
Summary of the method: as §1

AMPKa1 or AMPKa2 = test: Probe-based (AX9989) kinase profiling in Jurkat lysate: AMPKa1 or AMPKa2; assay type: binding
Summary of the method: as §1

TAO2 = target: T4, TAO2 (Homo sapiens, UniProt Q9UL54); test: Probe-based (AX9989) kinase profiling in Jurkat lysate: TAO2; assay type: binding
T4 construct: screened for activity against several kinases in Jurkat cells; endogenous in cells; host or cells: Jurkat cell lysate
T4 sequence (Q9UL54 1-1235): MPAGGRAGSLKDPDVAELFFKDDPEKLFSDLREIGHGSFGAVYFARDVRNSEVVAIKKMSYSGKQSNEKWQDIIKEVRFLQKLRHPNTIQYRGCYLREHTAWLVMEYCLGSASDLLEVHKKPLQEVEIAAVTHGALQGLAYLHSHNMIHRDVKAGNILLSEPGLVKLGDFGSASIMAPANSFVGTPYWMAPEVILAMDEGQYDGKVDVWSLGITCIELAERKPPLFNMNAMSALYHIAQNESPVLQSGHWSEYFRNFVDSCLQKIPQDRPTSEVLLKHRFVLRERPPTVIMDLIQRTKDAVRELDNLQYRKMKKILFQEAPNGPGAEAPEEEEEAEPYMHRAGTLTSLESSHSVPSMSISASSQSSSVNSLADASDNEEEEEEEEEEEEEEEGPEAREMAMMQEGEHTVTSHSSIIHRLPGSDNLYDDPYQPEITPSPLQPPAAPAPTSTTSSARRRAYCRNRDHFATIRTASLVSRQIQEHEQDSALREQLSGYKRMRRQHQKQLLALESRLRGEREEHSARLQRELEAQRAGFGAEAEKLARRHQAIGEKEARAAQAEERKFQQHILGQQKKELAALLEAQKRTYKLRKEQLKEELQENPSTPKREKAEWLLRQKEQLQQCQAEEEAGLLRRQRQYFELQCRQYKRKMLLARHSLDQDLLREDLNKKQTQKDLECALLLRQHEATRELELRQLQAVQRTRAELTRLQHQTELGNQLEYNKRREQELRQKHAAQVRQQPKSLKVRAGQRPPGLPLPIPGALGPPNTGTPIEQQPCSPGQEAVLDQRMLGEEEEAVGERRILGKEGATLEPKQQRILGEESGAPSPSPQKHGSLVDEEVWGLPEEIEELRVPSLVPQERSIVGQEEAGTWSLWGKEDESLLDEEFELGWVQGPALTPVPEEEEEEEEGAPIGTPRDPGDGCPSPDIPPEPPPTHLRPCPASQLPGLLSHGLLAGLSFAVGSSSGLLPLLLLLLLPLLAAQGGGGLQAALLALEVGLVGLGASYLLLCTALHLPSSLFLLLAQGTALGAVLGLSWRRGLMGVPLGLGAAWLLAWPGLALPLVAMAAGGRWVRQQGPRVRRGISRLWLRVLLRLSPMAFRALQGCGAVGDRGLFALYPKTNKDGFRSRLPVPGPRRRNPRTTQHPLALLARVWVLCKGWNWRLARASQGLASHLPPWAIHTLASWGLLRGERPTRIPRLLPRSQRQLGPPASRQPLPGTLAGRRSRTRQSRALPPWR
Summary of the method: as §1

ACK = target: T5, ACK (Homo sapiens, UniProt Q07912); test: Probe-based (AX9989) kinase profiling in Jurkat lysate: ACK; assay type: binding
T5 construct: screened for activity against several kinases in Jurkat cells; endogenous in cells; host or cells: Jurkat cell lysate
T5 sequence (Q07912 whole entry): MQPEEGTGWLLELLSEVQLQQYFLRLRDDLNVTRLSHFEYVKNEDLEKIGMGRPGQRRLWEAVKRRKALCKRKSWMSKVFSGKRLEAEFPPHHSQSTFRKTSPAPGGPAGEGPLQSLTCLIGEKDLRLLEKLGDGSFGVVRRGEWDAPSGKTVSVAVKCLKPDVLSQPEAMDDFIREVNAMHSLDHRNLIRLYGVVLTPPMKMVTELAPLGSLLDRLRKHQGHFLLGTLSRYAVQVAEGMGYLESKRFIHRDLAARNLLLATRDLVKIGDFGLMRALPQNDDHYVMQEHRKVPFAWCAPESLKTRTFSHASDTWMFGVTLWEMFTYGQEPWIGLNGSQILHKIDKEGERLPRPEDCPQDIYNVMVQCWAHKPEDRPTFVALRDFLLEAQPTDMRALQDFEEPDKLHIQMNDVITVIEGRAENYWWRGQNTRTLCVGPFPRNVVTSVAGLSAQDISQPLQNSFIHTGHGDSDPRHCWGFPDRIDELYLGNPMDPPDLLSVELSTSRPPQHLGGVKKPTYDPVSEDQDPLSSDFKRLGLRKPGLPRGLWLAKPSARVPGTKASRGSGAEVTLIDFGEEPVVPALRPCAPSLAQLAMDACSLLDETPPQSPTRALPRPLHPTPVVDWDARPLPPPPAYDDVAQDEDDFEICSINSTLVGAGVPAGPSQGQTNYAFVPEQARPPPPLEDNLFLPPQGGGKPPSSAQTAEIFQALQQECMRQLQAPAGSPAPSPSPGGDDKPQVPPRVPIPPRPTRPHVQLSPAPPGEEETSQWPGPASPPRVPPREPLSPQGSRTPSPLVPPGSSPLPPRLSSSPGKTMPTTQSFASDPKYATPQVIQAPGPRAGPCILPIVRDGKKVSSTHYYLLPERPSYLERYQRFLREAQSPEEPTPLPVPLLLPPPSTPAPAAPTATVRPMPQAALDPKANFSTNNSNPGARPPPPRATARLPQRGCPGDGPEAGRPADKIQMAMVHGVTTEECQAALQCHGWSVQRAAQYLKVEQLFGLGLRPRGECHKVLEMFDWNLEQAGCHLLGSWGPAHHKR
Summary of the method: as §1

ABL or ARG = test: Probe-based (AX9989) kinase profiling in Jurkat lysate: ABL or ARG; assay type: binding
Summary of the method: as §1

human PBMCs = test: Human PBMC TNF-α response to endotoxin (ELISA); assay type: cell-based; details: 0.1 μg/ml LPS 16 h, read-out: EC50 for the inhibition of the human PBMC TNF-α response to endotoxin, ave. ± S.D.
Summary of the method: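 PBMCs at 2e6 cells/ml in RPMI 1640 with 10% charcoal-dextran-treated FBS were pre-treated 1 h at 37 °C with compound (4-point 1:5 dilution from 10 μM). Stimulation with 0.1 μg/ml E. coli 0111:B4 LPS for 16 h; TNF-α measured by ELISA (A450) in 25-fold diluted supernatant.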

[1] = calculated from percent inhibition of AX9989 labeling and the screening concentration
[2] = screening concentration 1.0 μM, read-out: Kinase inhibition % at indicated screening concentration: ERK5
[3] = screening concentration 1.0 μM, read-out: Kinase inhibition % at indicated screening concentration: AurA
[4] = screening concentration 1.0 μM, read-out: Kinase inhibition % at indicated screening concentration: JAK1
[5] = screening concentration 1.0 μM, read-out: Kinase inhibition % at indicated screening concentration: TAO2
[6] = screening concentration 1.0 μM, read-out: Kinase inhibition % at indicated screening concentration: ACK
[7] = calculated from percent inhibition and screening concentration, AX9989 probe

T1 sequence (Q13164 whole entry): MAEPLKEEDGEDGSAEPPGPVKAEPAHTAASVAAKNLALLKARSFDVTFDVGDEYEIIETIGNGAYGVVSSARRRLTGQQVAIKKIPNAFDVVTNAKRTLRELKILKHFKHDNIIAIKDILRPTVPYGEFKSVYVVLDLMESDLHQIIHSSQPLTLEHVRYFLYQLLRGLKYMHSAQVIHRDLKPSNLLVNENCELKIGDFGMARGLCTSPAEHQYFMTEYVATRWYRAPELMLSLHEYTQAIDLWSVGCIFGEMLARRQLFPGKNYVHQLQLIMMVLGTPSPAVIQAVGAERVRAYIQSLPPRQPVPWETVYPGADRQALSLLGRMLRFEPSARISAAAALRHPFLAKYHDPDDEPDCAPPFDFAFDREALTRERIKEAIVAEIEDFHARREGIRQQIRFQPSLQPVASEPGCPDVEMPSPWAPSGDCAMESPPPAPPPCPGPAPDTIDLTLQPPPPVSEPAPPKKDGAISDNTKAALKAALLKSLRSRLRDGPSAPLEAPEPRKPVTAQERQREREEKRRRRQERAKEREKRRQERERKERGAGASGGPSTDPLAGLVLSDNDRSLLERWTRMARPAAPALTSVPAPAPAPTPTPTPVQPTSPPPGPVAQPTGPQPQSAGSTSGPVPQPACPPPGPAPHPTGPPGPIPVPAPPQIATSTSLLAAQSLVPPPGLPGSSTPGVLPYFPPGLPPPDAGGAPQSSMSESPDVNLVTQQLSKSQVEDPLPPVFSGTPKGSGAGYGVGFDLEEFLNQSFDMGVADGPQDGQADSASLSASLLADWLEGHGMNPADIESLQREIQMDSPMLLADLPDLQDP

pIC50 (ERK5; [1]) | inhibition at 1 µM (ERK5; [2]) | inhibition at 1 µM (AurA; [3]) | Kinase inhibition % at indicated screening concentration: AurB or AurC (AurB or AurC; screening concentration 1.0 μM) | inhibition at 1 µM (JAK1; [4]) | Kinase inhibition % at indicated screening concentration: AMPKa1 or AMPKa2 (AMPKa1 or AMPKa2; screening concentration 1.0 μM) | inhibition at 1 µM (TAO2; [5]) | inhibition at 1 µM (ACK; [6]) | Kinase inhibition % at indicated screening concentration: ABL or ARG (ABL or ARG; screening concentration 1.0 μM) | pIC50 (ERK5; [7]) | Structure (SMILES) | pEC50 (human PBMCs) | further results
 |  |  |  |  |  |  |  |  | < 6.30 | CCOc1cc(C(=O)N2CCN(C3CCN(C)CC3)CC2)ccc1Nc1cc2c(cn1)N(C)C(=N)c1ccccc1N2C [Compound T80] | < 4.82 | inhibition at 10 µM (ERK5; screening concentration 10 μM, read-out: ERK5 Inhibition % at indicated screening concentration): ≤ 35%; inhibition at 10 µM (AurA; screening concentration 10 μM, read-out: AurA Inhibition % at indicated screening concentration): ≤ 35%; AurB or AurC Inhibition % at indicated screening concentration (AurB or AurC; screening concentration 10 μM): E (E is ≦35%); inhibition at 10 µM (JAK1; screening concentration 10 μM, read-out: JAK1 Inhibition % at indicated screening concentration): ≤ 35%; AMPKa1 or AMPKa2 Inhibition % at indicated screening concentration (AMPKa1 or AMPKa2; screening concentration 10 μM): E (E is ≦35%); inhibition at 10 µM (TAO2; screening concentration 10 μM, read-out: TAO2 Inhibition % at indicated screening concentration): ≤ 35%; inhibition at 10 µM (ACK; screening concentration 10 μM, read-out: ACK Inhibition % at indicated screening concentration): ≤ 35%; ABL or ARG Inhibition % at indicated screening concentration (ABL or ARG; screening concentration 10 μM): E (E is ≦35%)
< 6.30 | ≤ 35% | ≤ 35% | E (E is ≦35%) | ≤ 35% | E (E is ≦35%) | ≤ 35% | ≤ 35% | E (E is ≦35%) |  | CCOc1cc(C(=O)N2CCC(N3CCN(C)CC3)CC2)ccc1Nc1cc2c(cn1)N(C)C(=O)C1CCCCC1N2C (centres unmarked) [Compound 68] | < 5.00 | 

Second part, the molecule before the results:

Structure (SMILES) | pIC50 (ERK5; [1]) | inhibition at 1 µM (ERK5; [2]) | inhibition at 1 µM (AurA; [3]) | Kinase inhibition % at indicated screening concentration: AurB or AurC (AurB or AurC; screening concentration 1.0 μM) | inhibition at 1 µM (JAK1; [4]) | Kinase inhibition % at indicated screening concentration: AMPKa1 or AMPKa2 (AMPKa1 or AMPKa2; screening concentration 1.0 μM) | inhibition at 1 µM (TAO2; [5]) | inhibition at 1 µM (ACK; [6]) | Kinase inhibition % at indicated screening concentration: ABL or ARG (ABL or ARG; screening concentration 1.0 μM) | pIC50 (ERK5; [7]) | pEC50 (human PBMCs) | further results
CCOc1cc(C(=O)NCCN2CCOCC2)ccc1Nc1cc2c(cn1)N(C)C(=O)c1ccccc1N2C [Compound 5] | 6.30 to 7.00 | 50 to 75% | ≤ 35% | E (E is ≦35%) | ≤ 35% | E (E is ≦35%) | ≤ 35% | ≤ 35% | D (D is >35% to ≦50%) |  | 5.76 | 
[2H]C([2H])([2H])N1C(=O)c2ccccc2N(C([2H])([2H])[2H])c2cc(Nc3ccc(C(=O)N4CCN(C(C)=O)CC4)cc3OCC)ncc21 [Compound T77] |  |  |  |  |  |  |  |  |  | 7.00 to 7.30 | 5.20 | inhibition at 1 µM (ERK5; screening concentration 1 μM, read-out: ERK5 Inhibition % at indicated screening concentration): > 90%; inhibition at 1 µM (AurA; screening concentration 1 μM, read-out: AurA Inhibition % at indicated screening concentration): ≤ 35%; AurB or AurC Inhibition % at indicated screening concentration (AurB or AurC; screening concentration 1 μM): E (E is ≦35%); inhibition at 1 µM (JAK1; screening concentration 1 μM, read-out: JAK1 Inhibition % at indicated screening concentration): ≤ 35%; AMPKa1 or AMPKa2 Inhibition % at indicated screening concentration (AMPKa1 or AMPKa2; screening concentration 1 μM): E (E is ≦35%); inhibition at 1 µM (TAO2; screening concentration 1 μM, read-out: TAO2 Inhibition % at indicated screening concentration): ≤ 35%; inhibition at 1 µM (ACK; screening concentration 1 μM, read-out: ACK Inhibition % at indicated screening concentration): ≤ 35%; ABL or ARG Inhibition % at indicated screening concentration (ABL or ARG; screening concentration 1 μM): E (E is ≦35%)
CCOc1cc(C(=O)N2CCC(N)C2)ccc1Nc1cc2c(cn1)N(C)C(=O)c1occc1N2C (centres unmarked) [Compound 11] | ≥ 7.30 |  |  |  |  |  |  |  |  |  | 5.60 | inhibition at 0.1 µM (ERK5; screening concentration 0.1 μM, read-out: Kinase inhibition % at indicated screening concentration: ERK5): > 90%; inhibition at 0.1 µM (AurA; screening concentration 0.1 μM, read-out: Kinase inhibition % at indicated screening concentration: AurA): ≤ 35%; Kinase inhibition % at indicated screening concentration: AurB or AurC (AurB or AurC; screening concentration 0.1 μM): E (E is ≦35%); inhibition at 0.1 µM (JAK1; screening concentration 0.1 μM, read-out: Kinase inhibition % at indicated screening concentration: JAK1): ≤ 35%; Kinase inhibition % at indicated screening concentration: AMPKa1 or AMPKa2 (AMPKa1 or AMPKa2; screening concentration 0.1 μM): E (E is ≦35%); inhibition at 0.1 µM (TAO2; screening concentration 0.1 μM, read-out: Kinase inhibition % at indicated screening concentration: TAO2): ≤ 35%; inhibition at 0.1 µM (ACK; screening concentration 0.1 μM, read-out: Kinase inhibition % at indicated screening concentration: ACK): ≤ 35%; Kinase inhibition % at indicated screening concentration: ABL or ARG (ABL or ARG; screening concentration 0.1 μM): E (E is ≦35%)
